Experimental data from patent US9902696B2, “1,4-substituted piperidine derivatives” (Cephalon, Inc., priority 2015, dated 2018).
Where a name gives a salt, the structure may show the parent alone.

target: T1, recombinant human baculovirus-expressed GST-tagged FASN (Homo sapiens, UniProt P49327); test: FASN enzyme activity assay, fluorescence-based detection of CoA with CPM; type: biochemical; details: 5 nM FASN, 150 μM NADPH, 10 μM acetyl-CoA, 25 μM malonyl-CoA, 90 minutes incubation; read-out: IC50 data for Additional Compounds of Formulae I-V(a): Activity
T1 construct: GST
T1 sequence (P49327 whole entry): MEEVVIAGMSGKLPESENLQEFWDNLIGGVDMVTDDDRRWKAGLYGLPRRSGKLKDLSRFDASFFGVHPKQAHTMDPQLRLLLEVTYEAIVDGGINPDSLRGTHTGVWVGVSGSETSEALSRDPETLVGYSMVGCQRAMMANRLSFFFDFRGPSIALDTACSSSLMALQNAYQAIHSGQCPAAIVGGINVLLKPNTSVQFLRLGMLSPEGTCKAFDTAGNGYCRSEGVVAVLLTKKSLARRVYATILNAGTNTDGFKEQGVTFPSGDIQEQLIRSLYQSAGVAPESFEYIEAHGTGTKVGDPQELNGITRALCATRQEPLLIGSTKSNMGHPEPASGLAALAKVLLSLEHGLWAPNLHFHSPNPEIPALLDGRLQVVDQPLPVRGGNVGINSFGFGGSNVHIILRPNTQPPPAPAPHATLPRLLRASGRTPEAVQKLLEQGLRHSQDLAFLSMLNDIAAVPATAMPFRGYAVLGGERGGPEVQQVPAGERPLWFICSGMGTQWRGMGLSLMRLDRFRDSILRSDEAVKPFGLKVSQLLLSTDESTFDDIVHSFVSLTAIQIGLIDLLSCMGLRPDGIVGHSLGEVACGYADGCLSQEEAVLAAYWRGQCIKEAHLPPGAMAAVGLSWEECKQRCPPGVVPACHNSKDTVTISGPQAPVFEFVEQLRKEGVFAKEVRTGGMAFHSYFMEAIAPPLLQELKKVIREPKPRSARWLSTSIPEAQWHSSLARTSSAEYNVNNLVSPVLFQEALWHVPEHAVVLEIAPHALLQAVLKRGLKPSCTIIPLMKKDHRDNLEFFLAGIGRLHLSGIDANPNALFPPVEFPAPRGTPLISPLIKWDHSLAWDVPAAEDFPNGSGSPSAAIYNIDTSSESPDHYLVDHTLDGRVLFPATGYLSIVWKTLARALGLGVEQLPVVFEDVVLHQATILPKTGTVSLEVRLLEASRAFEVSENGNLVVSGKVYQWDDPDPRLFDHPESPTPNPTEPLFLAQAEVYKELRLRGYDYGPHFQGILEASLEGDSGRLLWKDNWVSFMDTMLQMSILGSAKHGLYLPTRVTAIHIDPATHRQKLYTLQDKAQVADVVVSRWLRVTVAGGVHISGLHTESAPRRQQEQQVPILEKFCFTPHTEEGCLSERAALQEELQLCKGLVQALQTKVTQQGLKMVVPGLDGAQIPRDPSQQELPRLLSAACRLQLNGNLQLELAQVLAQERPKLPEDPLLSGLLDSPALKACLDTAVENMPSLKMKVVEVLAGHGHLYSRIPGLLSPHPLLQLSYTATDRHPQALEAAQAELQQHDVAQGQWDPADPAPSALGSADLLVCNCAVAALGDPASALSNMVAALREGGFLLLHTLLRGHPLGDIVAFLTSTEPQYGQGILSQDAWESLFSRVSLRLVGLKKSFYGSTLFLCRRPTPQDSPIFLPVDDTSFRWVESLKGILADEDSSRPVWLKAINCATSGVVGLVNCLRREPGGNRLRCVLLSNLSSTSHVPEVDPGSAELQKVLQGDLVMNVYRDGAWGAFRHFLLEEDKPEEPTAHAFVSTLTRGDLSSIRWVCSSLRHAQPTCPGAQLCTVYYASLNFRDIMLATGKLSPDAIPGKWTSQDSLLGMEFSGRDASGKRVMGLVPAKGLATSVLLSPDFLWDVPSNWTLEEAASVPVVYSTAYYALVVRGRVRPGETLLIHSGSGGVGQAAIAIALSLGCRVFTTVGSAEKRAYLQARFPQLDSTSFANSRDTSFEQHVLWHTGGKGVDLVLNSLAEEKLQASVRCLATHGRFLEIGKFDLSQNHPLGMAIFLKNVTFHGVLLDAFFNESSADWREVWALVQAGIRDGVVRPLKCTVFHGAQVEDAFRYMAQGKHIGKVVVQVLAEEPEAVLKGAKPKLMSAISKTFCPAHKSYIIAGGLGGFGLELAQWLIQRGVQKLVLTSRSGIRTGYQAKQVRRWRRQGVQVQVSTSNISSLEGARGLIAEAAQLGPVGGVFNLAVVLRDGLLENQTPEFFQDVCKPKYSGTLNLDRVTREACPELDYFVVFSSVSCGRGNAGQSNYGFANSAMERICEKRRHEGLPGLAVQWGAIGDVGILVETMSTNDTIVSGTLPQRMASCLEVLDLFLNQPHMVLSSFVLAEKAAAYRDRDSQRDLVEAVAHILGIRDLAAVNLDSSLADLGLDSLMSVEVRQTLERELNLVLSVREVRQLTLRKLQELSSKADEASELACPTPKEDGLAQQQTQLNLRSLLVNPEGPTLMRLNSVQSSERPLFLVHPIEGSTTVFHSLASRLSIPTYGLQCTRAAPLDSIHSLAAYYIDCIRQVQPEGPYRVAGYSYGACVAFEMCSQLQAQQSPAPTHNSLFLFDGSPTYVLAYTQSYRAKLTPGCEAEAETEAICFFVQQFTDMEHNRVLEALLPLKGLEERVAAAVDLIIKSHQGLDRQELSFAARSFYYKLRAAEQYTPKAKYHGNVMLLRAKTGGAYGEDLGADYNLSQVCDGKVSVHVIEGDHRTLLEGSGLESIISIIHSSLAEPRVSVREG
Method in brief: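 CoA product reacted with thiol-reactive CPM (diluted to 50 μM in 70% ethanol), read at 390/530 nm after 30 min. Preceding reaction: 90 min, 5 nM recombinant GST-FASN, 150 μM NADPH, 10 μM acetyl-CoA, 25 μM malonyl-CoA, pH 7.5 HEPES, 0.5% DMSO. IC50s fitted by nonlinear sigmoidal regression.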

IC50 [µM] | Compound
0.001 to 0.099 | Cc1c(-c2ccc(OC3CCN(C(=O)NCC(C)C)CC3)cc2)ccc2ccnn12 [Example 633, N-Isobutyl-4-[4-(7-methylpyrazolo[1,5-a]pyridin-6-yl)phenoxy]piperidine-1-carboxamide]
1 to 10 | Cc1c(-c2ccc(OC3CCN(C(=O)[C@@H]4CCCN4)CC3)cc2)ccc2cccnc12 [Example 621, [4-[4-(8-Methyl-7-quinolyl)phenoxy]-1-piperidyl]-[(2S)-pyrrolidin-2-yl]-methanone]
0.001 to 0.099 | CCCNC(=O)N1CCC(Oc2ccc(-c3ccc4nccn4c3C)cc2)CC1 [Example 594, 4-[4-(5-Methylimidazo[1,2-a]pyridin-6-yl)phenoxy]-N-propyl-piperidine-1-carboxamide]

same assay, conditions: 5 nM FASN, 150 μM NADPH, 10 μM acetyl-CoA, 25 μM malonyl-CoA, 90 minutes incubation; read-out: IC50 data for Compounds of Formulae I-V/V(a): Activity

Compound | IC50 [µM]
O=C(N1CCC(Oc2ccc(-c3ccc4cccnc4c3Cl)cc2)CC1)N1CCCO1 [Example 77, {4-[4-(8-Chloroquinolin-7-yl)-phenoxy]-piperidin-1-yl}-isoxazolidin-2-yl-methanone] | 0.001 to 0.099
O=C(C1CC1)N1CCC(Oc2ccc(-c3ccc4cccnc4c3OCCN3CCOCC3)cc2)CC1 [Example 172, Cyclopropyl-(4-{4-[8-(2-morpholin-4-yl-ethoxy)-quinolin-7-yl]-phenoxyl}-piperidin-1-yl)-methanone, 2HCl] | 1 to 10
CC(C)C(=O)N1CCC(Oc2ccc(-c3ccc(C#N)cc3)cc2)CC1 [Example 494, 4′-(1-Isobutyrylpiperidin-4-yloxy)-biphenyl-4-carbonitrile] | 1 to 10
CCC(=O)N1CCC(Oc2ccc(-c3cnc4ccccc4c3)cc2OC)CC1 [Example 196, 1-[4-(2-Methoxy-4-quinolin-3-yl-phenoxy)-piperidin-1-yl]-propan-1-one] | 1 to 10
NC(=O)C1(C(=O)N2CCC(Oc3ccc(-c4ccc5cncn5c4)cc3)CC2)CC1 [Example 301, 1-[4-(4-Imidazo[1,5-a]pyridin-6-yl-phenoxy)-piperidine-1-carbonyl]-cyclopropanecarboxylic acid amide] | 1 to 10
CC(C)C(=O)N1CCC(Oc2cc(F)c(-c3cnc4ccccc4c3)cc2F)CC1 [Example 216, 1-[4-(2,5-Difluoro-4-quinolin-3-yl-phenoxy)-piperidin-1-yl]-2-methyl-propan-1-one] | 1 to 10
COc1ccc(-c2ccc(OC3CCN(C(=O)C(C)C)CC3)cc2)cc1OC [Example 492, 1-[4-(3′,4′-Dimethoxybiphenyl-4-yloxy)-piperidin-1-yl]-2-methyl-propan-1-one] | 1 to 10
CCC(=O)N1CCC(Oc2ccc(-c3cnc4ccc(C)cc4c3)cc2)CC1 [Example 483, 1-{4-[4-(6-Methylquinolin-3-yl)-phenoxy]-piperidin-1-yl}-propan-1-one, HCl] | 0.001 to 0.099
CCC(=O)N1CCC(Oc2ccc(-c3cnc4ccccc4c3)cc2)CC1 [Example 2, 1-[4-(4-Quinolin-3-yl-phenoxy)-piperidin-1-yl]-propan-1-one] | 0.001 to 0.099
CCC(=O)N1CCC(Oc2ccc(-c3ccc(-c4ccccc4)nc3)cc2)CC1 [Example 378, 1-{4-[4-(6-Phenyl-pyridin-3-yl)-phenoxy]-piperidin-1-yl}-propan-1-one] | 1 to 10
Cc1c(-c2ccc(O[C@H]3CCN4C(=O)CC[C@H]4C3)cc2)ccc2cccnc12 (racemic) [Example 355, (±)-(7S,8aS)-7-(4-(8-Methylquinolin-7-yl)phenoxy)hexahydroindolizin-3 (2H)-one] | 1 to 10
CCC(=O)N1CCC(Oc2ccc(-c3ccc4cccnc4c3OCCCN3CCCC3)cc2)CC1 [Example 175, 1-(4-{4-[8-(3-Pyrrolidin-1-yl-propoxy)-quinolin-7-yl]-phenoxy}-piperidin-1-yl)-propan-1-one, HCl] | 1 to 10
CCC(=O)N1CCC(Sc2ccc(-c3cnc4ccccc4c3)cc2)CC1 [Example 518, 1-(4-((4-(Quinolin-3-yl)phenyl)thio)piperidin-1-yl)propan-1-one, HCl] | 0.001 to 0.099
1-{4-[4-(4-Methylisoquinolin-6-yl)-phenox]-piperidin-1-yl}-propan-1-one HCl [Example 457] | 0.001 to 0.099
CCC(=O)N1CCC(Oc2ccc(-c3ccc4cccnc4c3OCCCOC)cc2)CC1 [Example 179, 1-[4-[4-[8-(3-Methoxypropoxy)-7-quinolyl]phenoxy]-1-piperidyl]propan-1-one, HCl] | 0.1 to 0.999
CCC(=O)N1CCC(Oc2ccc(-c3ccc4cccnc4c3F)cc2)CC1 [Example 22] | 0.001 to 0.099
CC(C)C(=O)N1CCC(Sc2ccc(-c3cncc4ccccc34)cc2)CC1 [Example 523, 1-(4-((4-(Isoquinolin-4-yl)phenyl)thio)piperidin-1-yl)-2-methylpropan-1-one HCl] | 1 to 10
O=C(C1CC1)N1CCC(Oc2ccc(-c3cncc(-c4ccccc4)c3)cc2)CC1 [Example 384, Cyclopropyl-{4-[4-(5-phenyl-pyridin-3-yl)-phenoxy]-piperidin-1-yl}-methanone, TFA salt] | 1 to 10
CCCNC(=O)N1CCC(Oc2ccc(-c3ccc4cccnc4c3C)cc2)CC1 [Example 96, 4-[4-(8-methyl-7-quinolyl)phenoxy]-N-propyl-piperidine-1-carboxamide] | 0.001 to 0.099
CCC(=O)N1CCC(Oc2ccc(-c3ccc4cccnc4c3OCCN3CCN(C)CC3)cc2)CC1 [Example 177, 1-[4-[4-[8-[2-(4-Methylpiperazin-1-yl)ethoxy]-7-quinolyl]phenoxy]-1-piperidyl]propan-1-one, HCl] | 1 to 10
CCC(=O)N1CCC(Oc2ccc(-c3cc4ccccc4nc3Cl)cc2)CC1 [Example 16, 1-{4-[4-(2-Chloroquinolin-3-yl)-phenoxy]-piperidin-1-yl}-propan-1-one] | 1 to 10
CC(C)C(=O)N1CCC(S(=O)(=O)c2ccc(-c3ccc4cccnc4c3)cc2)CC1 [Example 512, 2-Methyl-1-[4-(4-quinolin-7-yl-benzenesulfonyl)-piperidin-1-yl]-propan-1-one] | 1 to 10
CCC(=O)N1CCC(Oc2ccc(-c3ccc4cccnc4c3C)cc2)C(C)C1 (mixture of isomers) [Example 375, 1-{3-Methyl-4-[4-(8-methylquinolin-7-yl)-phenoxy]-piperidin-1-yl}-propan-1-one, TFA salt] | 0.001 to 0.099

Next, values leading:

IC50 [µM] | Compound
1 to 10 | Cc1nc2ccc(-c3ccc(OC4CCN(C(=O)C5CC5)CC4)cc3)cn2c1C [Example 291, Cyclopropyl-{4-[4-(2,3-dimethylimidazo[1,2-a]pyridin-6-yl)-phenoxy]-piperidin-1-yl}-methanone]
0.1 to 0.999 | O=C(C1CC1)N1CCC(Oc2ccc(-c3ccc4nccn4c3Cl)cc2)CC1 [Example 297, {4-[4-(5-Chloroimidazo[1,2-a]pyridin-6-yl)-phenoxy]-piperidin-1-yl}-cyclopropylmethanone]
0.001 to 0.099 | Cc1cc(-c2ccc(OC3CCN(C(=O)[C@H]4CCCO4)CC3)cc2)cn2ccnc12 [Example 283, {4-[4-(8-Methylimidazo[1,2-a]pyridin-6-yl)-phenoxy]-piperidin-1-yl}-(R)-tetrahydrofuran-2-yl-methanone]
0.1 to 0.999 | Nc1c(-c2ccc(OC3CCN(C(=O)[C@H]4CCCO4)CC3)cc2)cnc2ccccc12 [Example 234, {4-[4-(4-Aminoquinolin-3-yl)-phenoxy]-piperidin-1-yl}-(R)-tetrahydro-furan-2-yl-methanone]
0.001 to 0.099 | Cc1c(-c2ccc(OC3CCN(C(=O)N4CCCO4)CC3)cc2)cnc2ccccc12 [Example 78, Isoxazolidin-2-yl-{4-[4-(4-methylquinolin-3-yl)-phenoxy]-piperidin-1-yl}-methanone]
1 to 10 | O=C(C1CC1)N1CCC(Oc2ccc(-c3cnc4c(c3)CCCC4)cc2)CC1 [Example 19, Cyclopropyl-{4-[4-(5,6,7,8-tetrahydro-quinolin-3-yl)-phenoxy]-piperidin-1-yl}-methanone]
0.1 to 0.999 | CCC(=O)N1CCC(Oc2ccc(-c3cc(C)c4cccnc4c3)cc2)CC1 [Example 346, 1-(4-(4-(5-Methylquinolin-7-yl)phenoxy)piperidin-1-yl)propan-1-one, HCl]
0.001 to 0.099 | Cc1c(-c2ccc(OC3CCN(C(=O)[C@@H]4CCCO4)CC3)cc2)ccc2cccnc12 [Example 70, {4-[4-(8-Methylquinolin-7-yl)-phenoxy]-piperidin-1-yl}-(S)-tetrahydro-furan-2-yl-methanone]
1 to 10 | CCC(=O)N1CCC(Oc2ccc(-c3ccc4nccn4c3C)cc2)CC1 [Example 286, 1-{4-[4-(5-Methylimidazo[1,2-a]pyridin-6-yl)-phenoxy]-piperidin-1-yl}-propan-1-one]
0.001 to 0.099 | COc1nccc2cc(-c3ccc(OC4CCN(C(=O)[C@H]5CCCO5)CC4)cc3)ccc12 [Example 432, {4-[4-(1-Methoxyisoquinolin-6-yl)-phenoxy]-piperidin-1-yl}-(R)-tetrahydro-furan-2-yl-methanone]
1 to 10 | CCC(=O)N1CCC(Oc2ccc(-c3ccc4cncn4c3)cc2)CC1 [Example 299, 1-[4-(4-Imidazo[1,5-a]pyridin-6-yl-phenoxy)-piperidin-1-yl]-propan-1-one]
1 to 10 | CCC(=O)N1CCC(Oc2ccc(-c3cn4ccnc4cc3C)cc2)CC1 [Example 293, 1-{4-[4-(7-Methylimidazo[1,2-a]pyridin-6-yl)-phenoxy]-piperidin-1-yl}-propan-1-one]
0.001 to 0.099 | O=C([C@H]1CCCO1)N1CCC(Oc2ccc(-c3ccc4c(N5CCOCC5)nccc4c3)cc2)CC1 [Example 452, {4-[4-(1-Morpholin-4-yl-isoquinolin-6-yl)-phenoxy]-piperidin-1-yl}-(R)-tetrahydrofuran-2-yl-methanone]
0.1 to 0.999 | COc1nccc2cc(-c3ccc(OC4CCN(C(=O)C5CC5)CC4)cc3)ccc12 [Example 435, Cyclopropyl-{4-[4-(1-methoxyisoquinolin-6-yl)-phenoxy]-piperidin-1-yl}-methanone]
